Experimental data from US20260265238A1, “COMPOUNDS AND PHARMACEUTICAL COMPOSITIONS THAT DEGRADE SWI/SNF-RELATED MATRIX-ASSOCIATED ACTIN-DEPENDENT REGULATOR OF CHROMATIN SUBFAMILY A” (Plexium, Inc., priority 2023, published 2026).

Legend:
[1] = target: T1, SMARCA2-HiBiT HeLa cells (protein which is expressed from the SMARCA2 gene) (Homo sapiens, UniProt P51531); assay: SMARCA2 degradation assay (HiBiT-fusion HeLa cell line, 24 h, luminescence); format: cell-based
T1 construct: protein which is expressed from the SMARCA2 and SMARCA4 genes; host or cells: HeLa (SMARCA2-HiBiT engineered line)
Outline: (§1)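 SMARCA2- or SMARCA4-HiBiT HeLa cells seeded overnight at 37° C, then given compound as a 10-point dilution (typically 10 μM to 300 pM) for 24 h at 37° C. Protein level read by HiBiT lytic detection luminescence; DC50 from dose-response curves; degradation also scored at 1 μM.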

[2] = target: T2, SMARCA4-HiBiT HeLa cells (protein which is expressed from the SMARCA4 gene) (Homo sapiens, UniProt P51532); assay: SMARCA4 degradation assay (HiBiT-fusion HeLa cell line, 24 h, luminescence); format: cell-based
T2 construct: protein which is expressed from the SMARCA2 and SMARCA4 genes; host or cells: HeLa (SMARCA4-HiBiT engineered line)
Outline: as §1

T1 sequence (P51531 whole entry, the tested form may be a part): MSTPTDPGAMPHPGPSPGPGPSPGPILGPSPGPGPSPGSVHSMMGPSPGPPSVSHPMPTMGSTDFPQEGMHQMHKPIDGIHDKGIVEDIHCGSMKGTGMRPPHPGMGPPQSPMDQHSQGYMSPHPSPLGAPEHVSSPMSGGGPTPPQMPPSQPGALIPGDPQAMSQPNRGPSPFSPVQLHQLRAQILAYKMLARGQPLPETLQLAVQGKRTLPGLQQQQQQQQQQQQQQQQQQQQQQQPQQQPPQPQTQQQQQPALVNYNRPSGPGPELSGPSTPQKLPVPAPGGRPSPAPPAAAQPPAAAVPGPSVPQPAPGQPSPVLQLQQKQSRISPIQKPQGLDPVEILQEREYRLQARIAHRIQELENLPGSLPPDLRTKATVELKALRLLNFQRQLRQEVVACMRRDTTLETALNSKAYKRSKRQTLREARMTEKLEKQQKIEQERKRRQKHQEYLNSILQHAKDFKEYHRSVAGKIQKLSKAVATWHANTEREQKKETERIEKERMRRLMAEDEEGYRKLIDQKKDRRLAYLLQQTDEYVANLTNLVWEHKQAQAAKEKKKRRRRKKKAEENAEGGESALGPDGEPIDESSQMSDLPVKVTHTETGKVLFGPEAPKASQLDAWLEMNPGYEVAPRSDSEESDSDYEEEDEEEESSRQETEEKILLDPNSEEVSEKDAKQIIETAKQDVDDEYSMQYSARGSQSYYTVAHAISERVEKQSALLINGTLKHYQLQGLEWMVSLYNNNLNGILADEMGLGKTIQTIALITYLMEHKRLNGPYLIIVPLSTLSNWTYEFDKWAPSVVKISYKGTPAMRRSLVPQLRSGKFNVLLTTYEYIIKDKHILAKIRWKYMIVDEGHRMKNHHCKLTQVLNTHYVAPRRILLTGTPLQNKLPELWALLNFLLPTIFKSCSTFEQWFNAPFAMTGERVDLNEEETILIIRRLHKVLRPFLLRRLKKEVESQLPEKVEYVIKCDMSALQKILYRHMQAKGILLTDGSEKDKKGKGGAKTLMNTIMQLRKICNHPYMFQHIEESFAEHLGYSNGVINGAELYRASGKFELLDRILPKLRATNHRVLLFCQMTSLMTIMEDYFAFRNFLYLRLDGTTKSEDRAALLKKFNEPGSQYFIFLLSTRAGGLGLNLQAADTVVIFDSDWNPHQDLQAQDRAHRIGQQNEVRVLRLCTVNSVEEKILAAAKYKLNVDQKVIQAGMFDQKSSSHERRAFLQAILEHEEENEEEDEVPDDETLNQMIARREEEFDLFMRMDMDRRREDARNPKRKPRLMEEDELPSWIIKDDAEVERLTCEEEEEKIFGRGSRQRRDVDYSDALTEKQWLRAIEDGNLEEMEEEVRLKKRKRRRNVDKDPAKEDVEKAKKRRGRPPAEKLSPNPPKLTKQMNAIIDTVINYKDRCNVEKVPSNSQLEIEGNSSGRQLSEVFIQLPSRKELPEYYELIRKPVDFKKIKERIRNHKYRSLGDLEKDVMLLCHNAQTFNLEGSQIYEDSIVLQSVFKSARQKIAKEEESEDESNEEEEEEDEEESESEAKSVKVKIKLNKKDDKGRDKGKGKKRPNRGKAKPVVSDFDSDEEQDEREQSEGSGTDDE
T2 sequence (P51532 whole entry, the tested form may be a part): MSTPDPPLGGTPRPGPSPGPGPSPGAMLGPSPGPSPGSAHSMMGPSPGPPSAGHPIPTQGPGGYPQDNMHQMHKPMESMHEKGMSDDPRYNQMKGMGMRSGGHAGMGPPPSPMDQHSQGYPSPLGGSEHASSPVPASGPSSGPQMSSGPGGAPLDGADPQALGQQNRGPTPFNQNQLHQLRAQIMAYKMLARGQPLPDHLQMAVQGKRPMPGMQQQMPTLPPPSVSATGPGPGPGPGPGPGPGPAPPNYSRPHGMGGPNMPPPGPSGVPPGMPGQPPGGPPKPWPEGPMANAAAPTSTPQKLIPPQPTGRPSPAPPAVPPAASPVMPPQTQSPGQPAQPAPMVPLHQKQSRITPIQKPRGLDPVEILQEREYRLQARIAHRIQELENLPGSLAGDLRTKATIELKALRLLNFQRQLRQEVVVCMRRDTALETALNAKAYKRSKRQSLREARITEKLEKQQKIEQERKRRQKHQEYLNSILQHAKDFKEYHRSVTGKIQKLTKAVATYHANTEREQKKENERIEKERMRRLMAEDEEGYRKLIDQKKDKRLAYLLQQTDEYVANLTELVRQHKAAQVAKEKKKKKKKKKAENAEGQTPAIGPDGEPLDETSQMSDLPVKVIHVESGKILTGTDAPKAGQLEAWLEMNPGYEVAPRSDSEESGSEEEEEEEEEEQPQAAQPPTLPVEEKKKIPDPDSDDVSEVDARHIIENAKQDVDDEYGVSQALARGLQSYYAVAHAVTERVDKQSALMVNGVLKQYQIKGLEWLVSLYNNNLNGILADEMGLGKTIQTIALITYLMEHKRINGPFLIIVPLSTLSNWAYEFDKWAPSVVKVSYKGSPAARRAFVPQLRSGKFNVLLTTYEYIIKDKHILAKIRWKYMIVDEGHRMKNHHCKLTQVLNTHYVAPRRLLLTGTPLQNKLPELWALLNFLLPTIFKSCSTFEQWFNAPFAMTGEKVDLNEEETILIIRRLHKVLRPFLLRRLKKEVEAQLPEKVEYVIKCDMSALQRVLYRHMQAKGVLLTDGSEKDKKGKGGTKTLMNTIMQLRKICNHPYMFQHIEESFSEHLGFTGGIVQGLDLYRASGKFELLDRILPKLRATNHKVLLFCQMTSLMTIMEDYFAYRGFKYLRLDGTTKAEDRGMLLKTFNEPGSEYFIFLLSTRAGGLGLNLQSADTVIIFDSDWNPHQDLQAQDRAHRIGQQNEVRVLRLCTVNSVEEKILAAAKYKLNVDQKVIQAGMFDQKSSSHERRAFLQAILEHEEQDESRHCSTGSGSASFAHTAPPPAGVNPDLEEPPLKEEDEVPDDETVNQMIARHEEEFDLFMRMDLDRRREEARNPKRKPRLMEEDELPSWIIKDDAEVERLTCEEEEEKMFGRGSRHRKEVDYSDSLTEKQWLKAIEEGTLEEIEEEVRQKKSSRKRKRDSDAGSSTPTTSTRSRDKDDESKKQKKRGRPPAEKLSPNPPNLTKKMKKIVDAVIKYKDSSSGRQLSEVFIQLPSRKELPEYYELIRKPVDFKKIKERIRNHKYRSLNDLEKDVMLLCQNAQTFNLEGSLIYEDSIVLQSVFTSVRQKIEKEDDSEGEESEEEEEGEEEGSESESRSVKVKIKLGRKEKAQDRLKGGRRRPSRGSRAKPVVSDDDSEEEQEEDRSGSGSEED

SMILES | DC50 [1] | SMARCA2 % Degradation @ 1 μM [1] | DC50 [2] | inhibition at 1 µM [2]
CN(C)CC#Cc1nccc(N2CCC3(CC2)CCN(c2cc(-c4ccccc4O)nnc2N)C3)n1 [Compound P-344, 0-[6-amino-5-(8-{2-[3-(dimethylamino)-1-propynyl]-4-pyrimidinyl}-2,8-diaza-2-spiro[4.5]decyl)-3-pyridazinyl]phenol] | < 50 nM | ++ (++=30-70%) | > 5000 nM | –
C[C@@H]1CCN(c2cc(-c3ccccc3O)nnc2N)CCN1c1ccnc(C#CCN(C)C)n1 [Compound P-345, 0-{5-[(R)-4-{2-[3-(dimethylamino)-1-propynyl]-4-pyrimidinyl}-5-methyl-1,4-diazepan-1-y1]-6-amino-3-pyridazinyl}phenol] | < 50 nM | ++ (++=30-70%) | < 50 nM | 30 to 70%
Cn1cc(C#Cc2nccc(N3CCCN(c4cc(-c5ccccc5O)nnc4N)CC3)n2)cn1 [Compound P-346, 0-[6-amino-5-(4-{2-[2-(1-methyl-4-pyrazolyl)ethynyl]-4-pyrimidinyl}-1,4-diazepan-1-yl)-3-pyridazinyl]phenol] | 500 to 5000 nM | ++ (++=30-70%) | 500 to 5000 nM | < 30%
Nc1nnc(-c2ccccc2O)cc1N1CCCN(c2ccnc(C#CC3COC3)n2)CC1 [Compound P-347, 0-[6-amino-5-(4-{2-[2-(3-oxetanyl)ethynyl]-4-pyrimidinyl}-1,4-diazepan-1-yl)-3-pyridazinyl]phenol] | 50 to 500 nM | +++ (+++=>70%) | 50 to 500 nM | > 70%
CC(C)(C)OC(=O)N1CCCC1C#Cc1nccc(N2CCCN(c3cc(-c4ccccc4O)nnc3N)CC2)n1 (centres unmarked) [Compound P-348, tert-butyl 2-[2-(4-{4-[3-amino-6-(o-hydroxyphenyl)-4-pyridazinyl]-1,4-diazepan-1-y1}-2-pyrimidinyl)ethynyl]-1-pyrrolidinecarboxylate] | 50 to 500 nM | +++ (+++=>70%) | 50 to 500 nM | > 70%
CC(C)(C)OC(=O)N1CCC(F)(C#Cc2nccc(N3CCCN(c4cc(-c5ccccc5O)nnc4N)CC3)n2)CC1 [Compound P-349] | 50 to 500 nM | ++ (++=30-70%) | 50 to 500 nM | 30 to 70%
CN1CCCC1C#Cc1nccc(N2CCCN(c3cc(-c4ccccc4O)nnc3N)CC2)n1 (centres unmarked) [Compound P-350, 0-[6-amino-5-(4-{2-[2-(1-methyl-2-pyrrolidinyl)cthynyl]-4-pyrimidinyl}-1,4-diazepan-1-yl)-3-pyridazinyl]phenol] | 50 to 500 nM | +++ (+++=>70%) | 50 to 500 nM | > 70%
CC(C)(C)OC(=O)N1CCC(C#Cc2nccc(N3CCCN(c4cc(-c5ccccc5O)nnc4N)CC3)n2)CC1 [Compound P-351, tert-butyl 4-[2-(4-{4-[3-amino-6-(o-hydroxyphenyl)-4-pyridazinyl]-1,4-diazepan-1-yl}-2-pyrimidinyl)ethynyl]-1-piperidinecarboxylate] | 500 to 5000 nM | ++ (++=30-70%) | 500 to 5000 nM | 30 to 70%
CS(=O)(=O)N1CCC(C#Cc2nccc(N3CCCN(c4cc(-c5ccccc5O)nnc4N)CC3)n2)CC1 [Compound P-352, 0-[6-amino-5-(4-{2-[2-(1-mesyl-4-piperidyl)ethynyl]-4-pyrimidinyl}-1,4-diazepan-1-yl)-3-pyridazinyl]phenol] | 500 to 5000 nM | ++ (++=30-70%) | 500 to 5000 nM | 30 to 70%
COC(=O)NCC#Cc1nccc(N2CCCN(c3cc(-c4ccccc4O)nnc3N)CC2)n1 [Compound P-353, 3-(4-{4-[3-amino-6-(o-hydroxyphenyl)-4-pyridaziny1]-1,4-diazepan-1-y1}-2-pyrimidinyl)-2-propynylaminomethylformylate] | 50 to 500 nM | +++ (+++=>70%) | 50 to 500 nM | > 70%
Cn1ccnc1C#Cc1nccc(N2CCCN(c3cc(-c4ccccc4O)nnc3N)CC2)n1 [Compound P-354] | 500 to 5000 nM | ++ (++=30-70%) | 500 to 5000 nM | 30 to 70%
Nc1nnc(-c2ccccc2O)cc1N1CCCN(c2ccnc(C#CC34CCCN3CCC4)n2)CC1 [Compound P-355, 0-[6-amino-5-(4-{2-[2-(hexahydro-1H-pyrrolizin-7a-yl)ethynyl]-4-pyrimidinyl}-1,4-diazepan-1-yl)-3-pyridazinyl]phenol] | 50 to 500 nM | +++ (+++=>70%) | 50 to 500 nM | > 70%
C[C@@H]1CN(CC#Cc2nccc(N3CCCN(c4cc(-c5ccccc5O)nnc4N)CC3)n2)C[C@@H](C)O1 [Compound P-356, 0-{5-[4-(2-{3-[(2R,6R)-2,6-dimethyl-4-morpholinyl]-1-propynyl}-4-pyrimidinyl)-1,4-diazepan-1-yl]-6-amino-3-pyridazinyl}phenol] | 500 to 5000 nM | ++ (++=30-70%) | 500 to 5000 nM | < 30%
N#CC1CCN(CC#Cc2nccc(N3CCCN(c4cc(-c5ccccc5O)nnc4N)CC3)n2)CC1 [Compound P-357, 1-[3-(4-{4-[3-amino-6-(o-hydroxyphenyl)-4-pyridazinyl]-1,4-diazepan-1-yl}-2-pyrimidinyl)-2-propynyl]-4-piperidinecarbonitrile] | 50 to 500 nM | ++ (++=30-70%) | 500 to 5000 nM | 30 to 70%
CC(C)(C)OC(=O)N1C2CCC1CN(CC#Cc1nccc(N3CCCN(c4cc(-c5ccccc5O)nnc4N)CC3)n1)C2 [Compound P-358, tert-butyl 3-[3-(4-{4-[3-amino-6-(o-hydroxyphenyl)-4-pyridazinyl]-1,4-diazepan-1-y1}-2-pyrimidinyl)-2-propynyl]-3,8-diazabicyclo[3.2.1]octane-8-carboxylate] | 500 to 5000 nM | ++ (++=30-70%) | 500 to 5000 nM | 30 to 70%
Nc1nnc(-c2ccccc2O)cc1N1CCCN(c2ccnc(C#CC3CC3)n2)CC1 [Compound P-359, 0-(6-amino-5-{4-[2-(2-cyclopropylethynyl)-4-pyrimidinyl]-1,4-diazepan-1-yl}-3-pyridazinyl)phenol] | 50 to 500 nM | ++ (++=30-70%) | 50 to 500 nM | < 30%
CCC1CN(CC#Cc2nccc(N3CCCN(c4cc(-c5ccccc5O)nnc4N)CC3)n2)c2ccccc2O1 (centres unmarked) [Compound P-360, 0-[6-amino-5-(4-{2-[3-(2-ethyl-3,4-dihydro-2H-1,4-benzoxazin-4-yl)-1-propynyl]-4-pyrimidinyl}-1,4-diazepan-1-yl)-3-pyridazinyl]phenol] | 50 to 500 nM | ++ (++=30-70%) | 50 to 500 nM | 30 to 70%
Nc1nnc(-c2ccccc2O)cc1N1CCCN(c2ccnc(C#CCN3CCCC(O)C3)n2)CC1 (centres unmarked) [Compound P-361, 1-[3-(4-{4-[3-amino-6-(o-hydroxyphenyl)-4-pyridazinyl]-1,4-diazepan-1-yl}-2-pyrimidinyl)-2-propynyl]-3-piperidinol] | 500 to 5000 nM | ++ (++=30-70%) | 500 to 5000 nM | < 30%
